Reference: patent publication US4118482A (priority 1977, dated 1978)
Read-outs that look alike come from different tables or passages of the source. Numbered stars: 1 amine (or outer) side, 2 acyl side, 3 side chain; on linkers, the order of the positions; unused ones are H or OH. Bridge positions count the residues as written; N and C are the ends. Square brackets hold non-standard residues; d marks the D form. Peptide text beside a SMILES is read from it. I, II: the chains in the order shown. Actinocin(9to1) = Cc1c2oc3c(C)ccc(C(=O)[*:1])c3nc-2c(C(=O)[*:2])c(N)c1=O; NMeV = CN[C@H](C(=O)O)C(C)C; Sar = CNCC(=O)O

Assays:
[1] = test system: advanced Ridgeway osteogenic sarcoma; settings: cited from earlier work
ADVANCED P388 LEUKEMIA = assay: Advanced P388 leukemia in mice, treatment Q4D x 3 at days 5, 9, 13; type: in vivo; settings: Q4D x 3 days 5, 9, 13, advanced P388; for SURVIAL TIME MEDIAN: controls 10 days
From the text: (§1) The National Cancer Institute conducted a screening test on samples of both Azetomicin I (3' prolyl, 3' azet) and Azetomicin II (3', 3' azet) as well as on Dactinomycin (3', 3' prolyl) that is also known as Actinomycin D or C1. The Azetomicin and Dactinomycin molecules are identical, with the exception of the 3' amino acid position on the peptides, wherein the 3' positions, in the case of Dactinomycin are both prolyl; in the case of the Azetomicin I are prolyl and azetidine-2-carboxyl; and in the cae of Azetomicin II are both azetidine-2-carboxyl.
ADVANCED P388 LEUKEMIA : Q4D × 3 AT DAYS 5, 9, 13 TREATMENT

[2] = Toxicity per mg compared with Actinomicin D
Rous sarcoma virus = assay: Development of visible tumors in chicks infected with Rous sarcoma virus, single injection; type: in vivo; settings: injected once; compared with untreated or saline injected controls
Procedure: In another test, both Azetomicin I and Azetomicin II, were injected once into chicks infected with Rous sarcoma virus. The development of visible tumors was decreased by over 80% as compared with untreated or saline injected controls.

[3] = Storage stability in aqueous solution; type: physicochemical; settings: 0°-25° C, pH range of 5-8, maintained in the dark
Procedure: The major products of interest were determined to be Azetomicin I and Azetomycin II. They were stable after storage at 0°-25° C in aqueous solution in the pH range of 5-8 for at least 5 days when maintained in the dark.

[4] = test system: advanced Ridgeway osteogenic sarcoma; assay: Drug-induced regression of advanced Ridgeway osteogenic sarcoma in mice; type: in vivo
Procedure: A sample of Azetomicin I was tested on mice infected with advanced Ridgeway osteogenic sarcoma. […] Data supplied by Dr. F. Schabel and his coworkers at Southern Research Institute has been collected in Table II below, with the results from Azetomicin I testing also noted: […]

[5] = test system: Bacillus subtilis, Staphylococcus aureus and Staphylococcus albus; assay: Inhibition of bacterial growth (cross section of gram-positive and gram-negative bacteria); type: cell-based
P388 leukemia = P388 leukemia in mice, treatment QD at days 1-9 (National Cancer Institute screen); type: in vivo; settings: for 5 ILS* (increased life span) / 60 DAY "CURES" / SURVIAL TIME MEDIAN: QD days 1-9, P388 mice; for SURVIAL TIME MEDIAN: controls 10 days
From the text: as §1
P 388 LEUKEMIA : QD AT DAYS 1-9 TREATMENT

[6] = schedule day 12, data of Southern Research Institute
[7] = schedule day 12, Azetomicin I testing

COc1cccc2c1C(=O)c1c(O)c3c(c(O)c1C2=O)C[C@@](O)(C(C)=O)C[C@@H]3O[C@H]1C[C@H](N)[C@H](O)[C@H](C)O1 [DAUNOMYCIN]
"CURES" (Number/Total) ([1]; schedule days 12-17): 0/12
REGRESSION 50+%-PARTIAL (Number/Total) ([1]; schedule days 12-17): 9/12
REGRESSION COMPLETE (Number/Total) ([1]; schedule days 12-17): 3/12

S=P(N1CC1)(N1CC1)N1CC1 [THIO-TEPA]
"CURES" (Number/Total) [1, 6]: 0/10
REGRESSION 50+%-PARTIAL (Number/Total) [1, 6]: 0/10
REGRESSION COMPLETE (Number/Total) [1, 6]: 0/10

CNNCc1ccc(C(=O)NC(C)C)cc1 [PROCARBAZINE]
"CURES" (Number/Total) ([1]; schedule days 12-20): 0/10
REGRESSION 50+%-PARTIAL (Number/Total) ([1]; schedule days 12-20): 0/10
REGRESSION COMPLETE (Number/Total) ([1]; schedule days 12-20): 0/10

N[C@@H](Cc1ccc(N(CCCl)CCCl)cc1)C(=O)O [L-SARCOLYSIN]
"CURES" (Number/Total) [1, 6]: 4/8
REGRESSION 50+%-PARTIAL (Number/Total) [1, 6]: 8/8
REGRESSION COMPLETE (Number/Total) [1, 6]: 7/8

Azetomicin I [AZETOMICIN-I]
5 ILS* (increased life span) (ADVANCED P388 LEUKEMIA; 0.6 Mg/Kg/Inj.): 270%
60 DAY "CURES" (ADVANCED P388 LEUKEMIA; 0.6 Mg/Kg/Inj.): 0
SURVIAL TIME MEDIAN (ADVANCED P388 LEUKEMIA; 0.6 Mg/Kg/Inj.): 37 days
toxicity/mg. compared with Actinomicin D [2]: substantially less toxic/mg.
decrease of development of visible tumors (Rous sarcoma virus): over 80%
time stable after storage in aqueous solution [3]: at least 5 days
animals with complete regression ([4]; of 10 animals treated, 12th day only injection schedule): 10 animals
"CURES" (Number/Total) [4, 7]: 10/10
REGRESSION 50+%-PARTIAL (Number/Total) [4, 7]: 10/10
REGRESSION COMPLETE (Number/Total) [4, 7]: 10/10
activity against bacterial growth relative to Actinomicin D [5]: 70%
5 ILS* (increased life span) (P388 leukemia; 0.05 Mg/Kg/Inj.): 150%
60 DAY "CURES" (P388 leukemia; 0.05 Mg/Kg/Inj.): 0%
SURVIAL TIME MEDIAN (P388 leukemia; 0.05 Mg/Kg/Inj.): 25 days
5 ILS* (increased life span) (P388 leukemia; 0.1 Mg/Kg/Inj.): 155%
60 DAY "CURES" (P388 leukemia; 0.1 Mg/Kg/Inj.): 0%
SURVIAL TIME MEDIAN (P388 leukemia; 0.1 Mg/Kg/Inj.): 25.5 days
5 ILS* (increased life span) (P388 leukemia; 0.2 Mg/Kg/Inj.): ≥ 500%
60 DAY "CURES" (P388 leukemia; 0.2 Mg/Kg/Inj.): 60%
SURVIAL TIME MEDIAN (P388 leukemia; 0.2 Mg/Kg/Inj.): ≥ 60 days
activity compared with Dactinomycin (summary of Table I) (P388 leukemia; P388 leukemia mice, Table I): clearly greater activity than both

MITHRAMYCIN
"CURES" (Number/Total) [1, 6]: 0/7
REGRESSION 50+%-PARTIAL (Number/Total) [1, 6]: 0/7
REGRESSION COMPLETE (Number/Total) [1, 6]: 0/7

CC[C@]1(O)C[C@H]2CN(CCc3c([nH]c4ccccc34)[C@@](C(=O)OC)(c3cc4c(cc3OC)N(C=O)[C@H]3[C@@](O)(C(=O)OC)[C@H](OC(C)=O)[C@]5(CC)C=CCN6CC[C@]43[C@@H]65)C2)C1 [VINCRISTINE]
"CURES" (Number/Total) ([1]; schedule days 12,16,20): 0/10
REGRESSION 50+%-PARTIAL (Number/Total) ([1]; schedule days 12,16,20): 10/10
REGRESSION COMPLETE (Number/Total) ([1]; schedule days 12,16,20): 8/10

L-ASPARAGINASE
"CURES" (Number/Total) [1, 6]: 0/10
REGRESSION 50+%-PARTIAL (Number/Total) [1, 6]: 0/10
REGRESSION COMPLETE (Number/Total) [1, 6]: 0/10

S=c1nc[nH]c2nc[nH]c12 [MERCAPTOPURINE]
"CURES" (Number/Total) ([1]; schedule days 12-22): 0/10
REGRESSION 50+%-PARTIAL (Number/Total) ([1]; schedule days 12-22): 9/10
REGRESSION COMPLETE (Number/Total) ([1]; schedule days 12-22): 6/10

Cc1c2oc3c(C)ccc(C(=O)N[C@@H]4C(=O)N[C@H](C(C)C)C(=O)N5CCC[C@H]5C(=O)N(C)CC(=O)N(C)[C@@H](C(C)C)C(=O)O[C@@H]4C)c3nc-2c(C(=O)N[C@@H]2C(=O)N[C@H](C(C)C)C(=O)N3CCC[C@H]3C(=O)N(C)CC(=O)N(C)[C@@H](C(C)C)C(=O)O[C@@H]2C)c(N)c1=O [DACTINOMYCIN, Dactinomycin] (I: T[dV]P[Sar][NMeV] / II: T[dV]P[Sar][NMeV]; ester I:1-I:C, II:1-II:C; linker I:N-II:N via Actinocin(9to1))
5 ILS* (increased life span) (ADVANCED P388 LEUKEMIA; 0.15 Mg/Kg/Inj.): 95%
60 DAY "CURES" (ADVANCED P388 LEUKEMIA; 0.15 Mg/Kg/Inj.): 0
SURVIAL TIME MEDIAN (ADVANCED P388 LEUKEMIA; 0.15 Mg/Kg/Inj.): 19.5 days
5 ILS* (increased life span) (P388 leukemia; 0.05 Mg/Kg/Inj.): 180%
60 DAY "CURES" (P388 leukemia; 0.05 Mg/Kg/Inj.): 0%
SURVIAL TIME MEDIAN (P388 leukemia; 0.05 Mg/Kg/Inj.): 28 days
5 ILS* (increased life span) (P388 leukemia; 0.1 Mg/Kg/Inj.): 115%
60 DAY "CURES" (P388 leukemia; 0.1 Mg/Kg/Inj.): 12%
SURVIAL TIME MEDIAN (P388 leukemia; 0.1 Mg/Kg/Inj.): 21.5 days

O=NN(CCCl)C(=O)NCCCl [BCNU]
"CURES" (Number/Total) [1, 6]: 0/8
REGRESSION 50+%-PARTIAL (Number/Total) [1, 6]: 0/8
REGRESSION COMPLETE (Number/Total) [1, 6]: 0/8
